In this experiment the test system is T1, soluble phosphatidic acid phosphatase (PAP), Mg2+-independent, partially purified from bitter melon cotyledons.
T1 construct: many copurified proteins, no PAP peptide found by LC/MS/MS
Put plainly: Pi release, ammonium molybdate-acetone-acid, A355. Type of experiment: biochemical, Momordica charantia. The conditions noted are these: pH 6.5, 53°C, 0.3 mM MgCl2, 50 mM imidazole, DPA 0-500 µM, sigmoidal curve.

We go through one molecule from paper PMC4159287, “Characterization of a Soluble Phosphatidic Acid Phosphatase in Bitter Melon (Momordica charantia)” (PLoS ONE, 2014).

The structures appear in SMILES notation.

As to `CCCCCCCC/C=C\CCCCCCCC(=O)OC[C@H](COP(=O)(O)O)OC(=O)CCCCCCC/C=C\CCCCCCCC` [DPA, 1,2-dioleoyl-sn-glycero-3-phosphate], the Km amounted to 595 µM.

For orientation: Km means the concentration of substrate that gives half-maximal velocity.
